Patent publication US20240210412A1, “SULFONYL-TRIAZOLE COMPOUNDS USEFUL AS LIGANDS AND INHIBITORS OF PROSTAGLANDIN REDUCTASE 2” (University of Virginia Patent Foundation, priority 2021, published 2024)
Blank lines part the entries; values can stand above or below the molecule they belong to.

Legend:
[1] = target: T1, Q8N8N7 (prostaglandin reductase 2, PTGR2) (Homo sapiens, UniProt Q8N8N7); experiment: SILAC LC-MS ABPP; type: cell-based
T1 construct: endogenous in cells; host or cells: DM93 cells (SILAC), live-cell treatment
Protocol: (§1) Cells were grown to 90-95% confluence before being washed once with warm, sterile DPBS (1×, 5 mL), followed by addition of 10 mL of serum-free media (supplemented with 1% L-glutamine) containing either DMSO or SuTEx fragment (in DMSO) was added. Light cells were treated with DMSO vehicle while the heavy cells were treated with DMSO or SuTEx fragment (in DMSO) and incubated for 2 hrs. After 2 hrs, the cells were treated with SuTEx alkyne probe (HHS475, 10 μL of 1000× DMSO stock) and incubated for an additional 2 hrs. The media was aspirated and cells washed with cold PBS (5 mL) and harvested. Cells were spun at 500×g for 5 min at 4° C. followed by removal of supernatant. Pellets were resuspended in 1 mL of cold DPBS and spun at 1,400×g for 3 min at 4° C. followed by removal of supernatant. The cells were lysed in PBS by sonication and fractionated (100,000×g, 45 min, 4° C.).The light and heavy soluble fractions were diluted to 2.3 mg/mL in PBS and 432 μL were used for analysis (1 mg total protein). The probe-modified proteomes were conjugated to desthiobiotin-PEG3-azide (10 μl of 10 mM stock in DMSO; 200 μM final concentration) using TCEP (10 μl of fresh 50 mM stock in water, 1 mM final concentration), TBTA ligand (33 μl of a 1.7 mM 4:1 t-butanol/DMSO stock, 100 μM final concentration) and CuSO4 (10 μl of 50 mM stock, 1 mM final concentration). Samples were vortexed to mix and incubated for 1 hr at room temperature. The heavy and light proteomes were mixed 1:1 and the subsequent steps, including LC-MS/MS data analysis, were performed as previously described^[8a].
(§2) Coupling cell-based screens with chemical proteomics can facilitate the identification of target protein and binding sites that engage and are irreversibly modified by covalent ligands^[12]. In these assays, covalent ligands block SuTEx activity-based probe (ABP) labeling at protein sites, and the competition of probe labeling can be used to quantify potency and selectivity across the proteome^[10a]. To facilitate quantitative chemical proteomics, DM93 melanoma cells were cultured using stable isotopic labeling by amino acids in cell culture (SILAC)^[13]. Cells cultured in “light” media were treated with dimethyl sulfoxide (DMSO) vehicle while cells cultured in “heavy” media were treated with SuTEx ligand (25 μM, 2 hours, 37° C.). Next, cells were treated with HHS-475 probe (100 μM, 2 hours, 37° C.) followed by lysis and processing of proteomes for analysis. Probe-modified proteins from the soluble fraction were conjugated to a desthiobiotin-azide tag by copper-catalyzed azide-alkyne cycloaddition (CuAAC)^[14] followed by mixing of the light and heavy proteomes. The combined proteomes were digested with trypsin protease to produce probe-modified peptides, followed by enrichment and purification by avidin affinity chromatography. Probe-modified peptides were resolved, identified, and quantified by high-resolution liquid chromatography-tandem mass spectrometry (LC-MS/MS). Resultant data were analyzed as previously described^[8a, 10a]. Table 2, below, lists sites of modification targeted by sulfonyl-triazole compounds HHS-0101, HHS-0201, HHS-0301, HHS-0401, and HHS-0701. The format of the table is as follows: protein Uniprot accession number (see uniprot.org); tyrosine site (amino acid position) modified; treatment (sulfonyl-triazole compound identification number, followed by Y (where if multiple compounds modify the same site, the compounds are separated by vertical lines).
Confirmatory studies were also performed on prostaglandin reductase 2 (PTGR2) because of its role in the reduction of the bioactive lipid, 15-keto-PGE2^[17]. […] The chemical proteomic studies also identified additional tyrosine sites (e.g. Y265) competed by HHS-0701 albeit to a lesser degree (SR<5) compared with Y100. […]

PTGR2 = target: T2, PTGR2 (Homo sapiens, UniProt Q8N8N7); experiment: PTGR2 enzymatic (15-keto-PGE2 substrate) assay after live-cell treatment; type: biochemical; conditions: cells treated 2 h 37° C., up to 25 μM; 15-keto-PGE2 20 μM
T2 construct: host or cells: HEK293T
Protocol: PTGR2 enzymatic assay was performed based on a previously described chromogenic method^[17,81]. HEK293T cells expressing recombinant PTGR2 were treated with DMSO vehicle or indicated concentrations of SuTEx ligand for 2 hrs. The cells were washed with cold PBS twice and harvested. The proteomes were lysed in PBS by sonication and fractionated (100,000×g, 45 min, 4° C.). Soluble proteome (0.5 mg) was incubated for 30 min at 37° C. with 1 mM of EDTA, DTT, NADPH and 20 μM 15-Keto PGE2 in 0.1 M Tris-HCl (PH 7.5) (final volume of 230 μL) and the substrate consumed was determined by adding 20 μL 20 N NaOH, mixing and measuring absorbance at 500 nm after 5 min.
The effect of liganding tyrosine sites on the biochemical function of PTGR2 was investigated. PTGR2 has a role in metabolism and there is an ability to measure its biochemical activity using an established 15-keto-PGE2 substrate assay^[17-18]. In brief, recombinant PTGR2 expressing HEK293T cells were treated with DMSO, HHS-0701, or HHS-0101 (negative control) for 2 hours at 37° C. Cells were lysed and the soluble fractions incubated in an assay buffer containing 15-keto-PGE2 (20 μM) for 30 minutes at 37° C. After quenching reactions in NaOH, the amount of substrate remaining was quantified by absorbance of a red chromophore that forms in an alkaline solution of 15-keto-PGE2^[17-18]. […]

P22626 = experiment: SILAC LC-MS ABPP; type: cell-based, human; conditions: 25 μM 2 h, live DM93 cells
Protocol: as §1, §2

T1 sequence (Q8N8N7 whole entry, one chain of several): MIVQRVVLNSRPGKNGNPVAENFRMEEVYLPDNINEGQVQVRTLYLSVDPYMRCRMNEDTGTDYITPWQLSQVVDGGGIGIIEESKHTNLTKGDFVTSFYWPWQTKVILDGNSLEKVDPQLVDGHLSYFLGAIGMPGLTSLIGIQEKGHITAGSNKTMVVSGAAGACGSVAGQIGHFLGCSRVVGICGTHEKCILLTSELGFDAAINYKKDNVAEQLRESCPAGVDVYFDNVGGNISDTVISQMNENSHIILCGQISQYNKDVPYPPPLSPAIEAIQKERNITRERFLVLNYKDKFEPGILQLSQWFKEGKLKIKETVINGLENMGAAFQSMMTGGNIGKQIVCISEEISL
T2 sequence (Q8N8N7 whole entry): as the sequence (Q8N8N7 whole entry, one chain of several) above

Structure (SMILES): O=C(NC1CC1)c1ccc(S(=O)(=O)n2cncn2)cc1 [HHS-0101, 4-((1H-1,2,4-triazol-1-yl)sulfonyl)-N-cyclopropylbenzamide]
SILAC ratio (SR), PTGR2 Y100 ([1]; 25 μM 2 h, live DM93 cells): 1.4
inhibition of PTGR2 biochemical activity (PTGR2): No inhibitory activity
liganded tyrosine site 262 (P22626): HHS0101.Y (tyrosine sites that showed >80% reductions (SR >5) in probe labeling in cells treated with compounds (liganded sites))

Structure (SMILES): O=C(NCC1CC1)c1ccc(S(=O)(=O)n2cncn2)cc1 [HHS-0201, 4-((1H-1,2,4-triazol-1-yl)sulfonyl)-N-(cyclopropylmethyl)benzamide]
liganded tyrosine site 244 (P22626): HHS0201.Y (tyrosine sites that showed >80% reductions (SR >5) in probe labeling in cells treated with compounds (liganded sites))
liganded tyrosine site 247 (P22626): HHS0201.Y (tyrosine sites that showed >80% reductions (SR >5) in probe labeling in cells treated with compounds (liganded sites))
liganded tyrosine site 283 (P22626): HHS0201.Y (tyrosine sites that showed >80% reductions (SR >5) in probe labeling in cells treated with compounds (liganded sites))

Structure (SMILES): O=C(NCc1ccccc1)c1ccc(S(=O)(=O)n2cncn2)cc1 [HHS-0401, 4-((1H-1,2,4-triazol-1-yl)sulfonyl)-N-benzylbenzamide]
liganded tyrosine site 265 ([1]; 25 μM 2 h, live DM93 cells): HHS0401.Y (tyrosine sites that showed >80% reductions (SR >5) in probe labeling in cells treated with compounds (liganded sites))

SILAC ratio (SR), PTGR2 Y100 ([1]; 25 μM 2 h, live DM93 cells): 11
SILAC ratio (SR), PTGR2 Y265 ([1]; 25 μM 2 h, live DM93 cells): < 5
PTGR2 Y100 liganded ([1]; ligand-treated DM93 cells): ~90%
Structure (SMILES): O=C(c1ccc(S(=O)(=O)n2cncn2)cc1)N1CCC(c2ccccc2)CC1 [HHS-0701, (4-((1H-1,2,4-triazol-1-yl)sulfonyl)phenyl)(4-phenylpiperidin-1-yl)methanone]
liganded tyrosine site 100 ([1]; 25 μM 2 h, live DM93 cells): HHS0701.Y (tyrosine sites that showed >80% reductions (SR >5) in probe labeling in cells treated with compounds (liganded sites))
inhibition of PTGR2 biochemical activity (PTGR2): concentration-dependent inhibition of PTGR2 activity
